Source: patent US9676779B2, “Small molecule CFTR correctors” (DISCOVERYBIOMED, INC., priority 2012, dated 2017)

Key:
Type in all cases: cell-based
delF508-CFTR [1] = target: T1, delF508-CFTR (Homo sapiens, UniProt P13569, DEL508-508); test: CFTR Western blot / biochemical rescue assay (band B to band C); settings: CF human airway epithelial cells; 10 nM-10 μM; 10% serum containing medium
T1 construct: Unaltered CFBE41o− cells were used as the model; endogenous in cells; host or cells: CFBE41o- human CF bronchial epithelial cells (delF508 homozygous, not overexpressing)
T1 sequence (P13569 with tags, fused parts or gaps DEL508-508): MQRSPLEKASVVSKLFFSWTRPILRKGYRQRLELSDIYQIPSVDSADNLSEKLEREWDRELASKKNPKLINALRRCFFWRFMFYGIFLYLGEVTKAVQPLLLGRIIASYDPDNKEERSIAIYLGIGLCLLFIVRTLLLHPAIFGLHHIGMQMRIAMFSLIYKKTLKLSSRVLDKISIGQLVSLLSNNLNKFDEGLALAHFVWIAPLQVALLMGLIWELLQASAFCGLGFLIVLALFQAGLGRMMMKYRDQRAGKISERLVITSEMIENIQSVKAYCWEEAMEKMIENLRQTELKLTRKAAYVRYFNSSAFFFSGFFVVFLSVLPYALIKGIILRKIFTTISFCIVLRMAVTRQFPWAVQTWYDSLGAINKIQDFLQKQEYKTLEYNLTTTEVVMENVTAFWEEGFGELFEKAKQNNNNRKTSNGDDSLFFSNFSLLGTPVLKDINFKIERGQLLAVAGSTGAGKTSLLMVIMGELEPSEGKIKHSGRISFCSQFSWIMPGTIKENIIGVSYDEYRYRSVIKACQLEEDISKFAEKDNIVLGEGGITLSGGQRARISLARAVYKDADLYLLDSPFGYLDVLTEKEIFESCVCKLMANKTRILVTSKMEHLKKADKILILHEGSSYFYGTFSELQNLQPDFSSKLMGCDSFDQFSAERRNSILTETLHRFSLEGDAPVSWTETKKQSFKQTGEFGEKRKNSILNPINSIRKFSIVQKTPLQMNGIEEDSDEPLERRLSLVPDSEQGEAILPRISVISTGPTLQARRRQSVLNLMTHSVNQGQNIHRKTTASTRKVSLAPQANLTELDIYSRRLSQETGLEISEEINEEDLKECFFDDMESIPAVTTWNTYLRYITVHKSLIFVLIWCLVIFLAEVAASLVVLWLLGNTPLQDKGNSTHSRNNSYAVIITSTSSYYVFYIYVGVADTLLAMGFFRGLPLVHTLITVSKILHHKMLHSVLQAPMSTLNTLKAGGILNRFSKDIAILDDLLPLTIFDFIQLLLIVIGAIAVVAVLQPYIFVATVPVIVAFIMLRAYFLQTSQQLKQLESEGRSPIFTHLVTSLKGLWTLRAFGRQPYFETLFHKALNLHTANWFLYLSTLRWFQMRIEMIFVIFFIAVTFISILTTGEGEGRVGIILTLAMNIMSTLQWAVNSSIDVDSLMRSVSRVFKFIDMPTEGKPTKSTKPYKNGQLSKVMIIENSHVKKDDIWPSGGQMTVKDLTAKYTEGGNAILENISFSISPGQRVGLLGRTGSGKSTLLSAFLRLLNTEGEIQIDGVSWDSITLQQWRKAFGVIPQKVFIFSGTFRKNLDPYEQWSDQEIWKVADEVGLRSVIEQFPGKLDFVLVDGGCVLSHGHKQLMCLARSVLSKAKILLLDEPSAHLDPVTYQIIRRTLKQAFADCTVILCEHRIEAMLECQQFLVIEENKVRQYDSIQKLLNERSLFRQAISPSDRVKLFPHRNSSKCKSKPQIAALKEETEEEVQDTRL
Experimental: The method of profiling can also include determining the degree of CFTR glycosylation or CFTR protein processing. Optionally, this method can be performed using Western blot analysis. In this method, cells can be treated with the compound as described herein for a period of time (e.g., 24 hours) and, optionally, at multiple concentrations (e.g., 4 doses).
The method described in Example 3 was repeated with doses of the test compound of 0.01 μM, 0.1 μM, 1 μM, 10 μM, and 50 μM in Dulbecco's Modified Eagle Medium (DMEM) with 10% fetal bovine serum (FBS) for 48 hours at 37° C. Unaltered CFBE41o− cells were used as the model. A Western blot analysis of the lysates (10-50 μg total protein) was performed using the MM13-4 antibody for human CFTR to monitor changes in the CFTR protein. […] VX-809 and DMSO were used as the controls.
Cells were lysed in RIPA buffer (50 mM Tris-HCl, pH 7.4, 150 mM NaCl, 1% NP-40, 0.5% Deoxycholic Acid, 0.1% SDS) plus a cocktail of protease inhibitors (Roche; Basel, Switzerland). Protein concentrations in the cell lysates were measured by BCA Protein Assay using BSA as standard (Pierce; Rockford, Ill.). Proteins (25 μg) were resolved on an 8% SDS-PAGE gel and transferred to PDVF membranes. Total CFTR in the lysate was detected by immunoblotting using a specific CFTR antibody (MM13-4 from Upstate, 1:500 dilution).
The compounds were then subjected to a biochemical assay to define which hit compounds rescued the band B core glycosylated endoplasmic reticulum (ER) form of delF508-CFTR within the cell interior into the maturely glycosylated band C form within the secretory pathway for proteins and within the plasma membrane. Effective compounds stabilized the band B form of CFTR and caused more of this form to accumulate at the level of the ER.
By way of example, the delF508-CFTR mutation can be rescued from the ER with low temperature incubation for 48 hours (see examples in the blots as the positive control). The DMSO control is the simulated CF condition where the delF508-CFTR-expressing cells were grown at physiological temperature. […]

[2] = target: T2, delF508-CFTR chloride ion channels (Homo sapiens, UniProt P13569, DEL508-508); test: Ussing chamber short-circuit current electrical assay; settings: apical membrane of polarized CF human bronchial epithelium
T2 construct: functional delF508-CFTR chloride ion channels in the apical membrane of a polarized CF human bronchial epithelium; endogenous in cells
T2 sequence (P13569 with tags, fused parts or gaps DEL508-508): as above
Experimental: The method of profiling can further include determining the degree of functional delF508-CFTR chloride ion channels in the apical cell membrane of cells (e.g., polarized CF human airway epithelial cells). This method can use electrophysiological methods, such as Ussing chamber-based measurement of short-circuit current, voltammeter-based measurement of open-circuit transepithelial voltage and transepithelial resistance, and patch-clamp electrophysiology.
An electrical assay was also performed to determine the functional rescue of delF508-CFTR to the apical cell membrane in a polarized epithelium using the compounds described herein. The metrics analyzed were the basal short-circuit Cl^− current, the change or delta Cl^− current stimulated by forskolin, the total stimulated Cl^− current (basal and forskolin), and the change or delta Cl^− current inhibited by GlyH101. For exemplary purposes, DMSO (100 nM) and VX-809 (100 nM equivalent) treatments were controls, and a CFCL corrector was tested (see FIG. 9).
Only high-resistance cell monolayers (>800 to 1,000 Ohms per cm^2) were used in the experiments. Basal short-circuit current (ISC) was measured and documented. Amiloride was added to the apical side of the Ussing chamber to block any contribution of ENaC or other sodium or cation channels under basal or stimulated conditions. The effect of amiloride was negligible under these cell culture conditions. In the continued presence of amiloride (100 μM), forskolin (10 μM) was added to both sides of the monolayer to selectively open any delF508-CFTR chloride channels in the apical cell membrane. This activation step uncovered any remaining corrected delF508-CFTR chloride ion channels in the apical membrane of the polarized CF human bronchial epithelium. The final step was the addition of a CFTR-selective inhibitor, GlyH101 (100 μM), to reverse the effect of forskolin.
Ussing chamber-derived short-circuit current data were obtained for Compounds C-15 and C-73 (see FIGS. 10 and 11). […] The same protocol of additions of drugs to the apical side of the Ussing chamber was performed on each cell monolayer as described above. CPT-cAMP and IBMX are equivalent and CFTR-specific agonists to forskolin. As described above, VX-770 is a CFTR potentiator drug added to activate any remaining corrected CFTR present.

delF508-CFTR [3] = target: T1, delF508-CFTR; test: SPQ halide-sensitive fluorescence dye profiling assay (rescue of halide efflux)
Experimental: The method of profiling can include detecting the rescue of halide efflux from a cell. The step of detecting a rescue of halide efflux from the cell can be monitored using the halide quenched dye 6-methoxy-N-(3-sulfopropyl)-quinolinium (SPQ, Molecular Probes Inc., Eugene, Oreg.). In this method, cells are treated with a compound as described herein for a period of time (e.g., 48 hours). The rescue or correction of halide efflux is then detected using the SPQ assay with the halide dye. […] Optionally, the halide efflux is chloride efflux. The method of screening can further comprise performing the method with multiple concentrations of the compound.
The compounds were initially subjected to the SPQ halide-sensitive fluorescence dye profiling assay for rescue or correction of membrane chloride ion permeability or transport with an 8-point concentration-response curve. The EC50 values for the compounds described herein were determined and compared to the efficacy of the industry standard Vertex 809 (VX-809; Vertex Pharmaceuticals, Cambridge, Mass.) at 3 μM, which is the maximally effective profiling dose for VX-809 (Table 1). The VX-809 dosage at 3 μM was treated as having 100% efficacy in the comparison.
To perform the SPQ high throughput screening assay, CFBE41o− cells were seeded into 96-well microtiter plates and were loaded with the fluorescent halide-sensitive dye, SPQ, in serum-containing culture medium. Certain wells were loaded with known positive control corrector molecules, including VX-809. The test compounds were loaded into wells and were tested in triplicate wells at a 10 μM dose and incubated over 48 hours at room temperature. During the 48 hour period, SPQ was absorbed. Plates were washed in a sodium chloride (NaCl) based Ringer and read once over two minutes to set the baseline SPQ fluorescence activity. Then, NaCl was replaced by sodium nitrate (NaNO3) based Ringer. The plates were read twice over four minutes. The primary high throughput screen (HTS) data were analyzed to detect any function of rescued delF508-CFTR under basal conditions. The plate was read up to two times to complete the SPQ HTS assay.

biochemical correction of the delF508-CFTR protein (delF508-CFTR [1]): biochemical correction | correction of functional delF508-CFTR chloride ion channels (short-circuit current) [2]: robust correction | EC50 (delF508-CFTR [3]; SPQ assay, 8-point concentration-response curve, CFBE41o− cells): 300 nM | Emax (delF508-CFTR [3]; VX-809 at 3 μM treated as 100% efficacy): 120% | Efficacy Comparison to 3 μM VX-809 (delF508-CFTR [3]; compared to VX-809 at 3 μM): 10-fold greater than VX-809 | potency and efficacy versus VX-809 in SPQ profiling (delF508-CFTR [3]; compounds advanced to further profiling): superior potency and efficacy to VX-809
Structure (SMILES): CCOC(=O)c1nnc2c(-c3ccc(Cl)c(Cl)c3)c(C)nn2c1C [Compound C-15]
